Measurements as given in ChEMBL document CHEMBL1255248, “Fitness of Streptococcus pneumoniae fluoroquinolone-resistant strains with topoisomerase IV recombinant genes” (2008).
Converted amounts (≈) assume the structure as drawn.

Tests used:
Streptococcus pneumoniae [1] = assay: Antimicrobial activity against ciprofloxacin-resistant Streptococcus pneumoniae T6 harboring parC mutant gene by agar dilution method
Streptococcus pneumoniae [2] = assay: Antimicrobial activity against ciprofloxacin-resistant Streptococcus pneumoniae T2 harboring gyrA mutant gene by agar dilution method
Streptococcus pneumoniae [3] = assay: Antimicrobial activity against ciprofloxacin-resistant Streptococcus pneumoniae T16 harboring parC mutant gene by agar dilution method
Streptococcus pneumoniae [4] = assay: Antimicrobial activity against ciprofloxacin-resistant Streptococcus pneumoniae T8 harboring gyrA mutant gene by agar dilution method
Streptococcus pneumoniae [5] = assay: Antimicrobial activity against ciprofloxacin-resistant Streptococcus pneumoniae T1 harboring parC mutant gene by agar dilution method
Streptococcus pneumoniae [6] = assay: Antimicrobial activity against ciprofloxacin-resistant Streptococcus pneumoniae T7 harboring gyrA mutant gene by agar dilution method
Streptococcus pneumoniae [7] = assay: Antimicrobial activity against ciprofloxacin-resistant Streptococcus pneumoniae T14 harboring gyrA mutant gene by agar dilution method
Streptococcus pneumoniae [8] = assay: Antimicrobial activity against ciprofloxacin-resistant Streptococcus pneumoniae T29 harboring gyrA mutant gene by agar dilution method
Streptococcus pneumoniae [9] = assay: Antimicrobial activity against ciprofloxacin-resistant Streptococcus pneumoniae T4 harboring gyrA mutant gene by agar dilution method
Streptococcus pneumoniae [10] = assay: Antimicrobial activity against ciprofloxacin-resistant Streptococcus pneumoniae T11 harboring parE-ant-parC mutant gene by agar dilution method
Streptococcus pneumoniae [11] = assay: Antimicrobial activity against ciprofloxacin-resistant Streptococcus pneumoniae T23 harboring gyrA mutant gene by agar dilution method
Streptococcus pneumoniae [12] = assay: Antimicrobial activity against ciprofloxacin-resistant Streptococcus pneumoniae T13 harboring gyrA mutant gene by agar dilution method
Streptococcus pneumoniae [13] = assay: Antimicrobial activity against ciprofloxacin-resistant Streptococcus pneumoniae T9 harboring gyrA mutant gene by agar dilution method
Streptococcus pneumoniae [14] = assay: Antimicrobial activity against ciprofloxacin-resistant Streptococcus pneumoniae T12 harboring gyrA mutant gene by agar dilution method
Streptococcus pneumoniae [15] = assay: Antimicrobial activity against ciprofloxacin-resistant Streptococcus pneumoniae T19 harboring gyrA mutant gene by agar dilution method
Streptococcus pneumoniae [16] = assay: Antimicrobial activity against ciprofloxacin-resistant Streptococcus pneumoniae T3 harboring gyrA mutant gene by agar dilution method
Streptococcus pneumoniae [17] = assay: Antimicrobial activity against ciprofloxacin-resistant Streptococcus pneumoniae T18 harboring gyrA mutant gene by agar dilution method
Streptococcus pneumoniae [18] = assay: Antimicrobial activity against ciprofloxacin-resistant Streptococcus pneumoniae T25 harboring gyrA mutant gene by agar dilution method
Streptococcus pneumoniae [19] = assay: Antimicrobial activity against ciprofloxacin-resistant Streptococcus pneumoniae T26 harboring parC mutant gene by agar dilution method
Streptococcus pneumoniae [20] = assay: Antimicrobial activity against ciprofloxacin-resistant Streptococcus pneumoniae T20 harboring gyrA mutant gene by agar dilution method
Streptococcus pneumoniae [21] = assay: Antimicrobial activity against ciprofloxacin-resistant Streptococcus pneumoniae T21 harboring parC mutant gene by agar dilution method
Streptococcus pneumoniae [22] = assay: Antimicrobial activity against ciprofloxacin-resistant Streptococcus pneumoniae T30 harboring gyrA mutant gene by agar dilution method
Streptococcus pneumoniae [23] = assay: Antimicrobial activity against ciprofloxacin-resistant Streptococcus pneumoniae T24 harboring gyrA mutant gene by agar dilution method
Streptococcus pneumoniae [24] = assay: Antimicrobial activity against ciprofloxacin-resistant Streptococcus pneumoniae T28 harboring gyrA mutant gene by agar dilution method

## O=C(O)c1cn(C2CC2)c2cc(N3CCNCC3)c(F)cc2c1=O [CIPROFLOXACIN]
Streptococcus pneumoniae [1]
  MIC: 2 mg/L (≈ 6.04 µM)
Streptococcus pneumoniae [2]
  MIC: 32 mg/L (≈ 96.6 µM)
Streptococcus pneumoniae [3]
  MIC: 2 mg/L (≈ 6.04 µM)
Streptococcus pneumoniae [4]
  MIC: 32 mg/L (≈ 96.6 µM)
Streptococcus pneumoniae [5]
  MIC: 4 mg/L (≈ 12.1 µM)
Streptococcus pneumoniae [6]
  MIC: 32 mg/L (≈ 96.6 µM)
Streptococcus pneumoniae [7]
  MIC: 32 mg/L (≈ 96.6 µM)
Streptococcus pneumoniae [8]
  MIC: 32 mg/L (≈ 96.6 µM)
Streptococcus pneumoniae [9]
  MIC: 32 mg/L (≈ 96.6 µM)
Streptococcus pneumoniae [10]
  MIC: 2 mg/L (≈ 6.04 µM)
Streptococcus pneumoniae [11]
  MIC: 16 mg/L (≈ 48.3 µM)
Streptococcus pneumoniae [12]
  MIC: 32 mg/L (≈ 96.6 µM)
Streptococcus pneumoniae [13]
  MIC: 32 mg/L (≈ 96.6 µM)
Streptococcus pneumoniae [14]
  MIC: 32 mg/L (≈ 96.6 µM)
Streptococcus pneumoniae [15]
  MIC: 32 mg/L (≈ 96.6 µM)
Streptococcus pneumoniae [16]
  MIC: 32 mg/L (≈ 96.6 µM)
Streptococcus pneumoniae [17]
  MIC: 64 mg/L (≈ 193 µM)
Streptococcus pneumoniae [18]
  MIC: 16 mg/L (≈ 48.3 µM)
Streptococcus pneumoniae [19]
  MIC: 4 mg/L (≈ 12.1 µM)
Streptococcus pneumoniae [20]
  MIC: 32 mg/L (≈ 96.6 µM)
Streptococcus pneumoniae [21]
  MIC: 2 mg/L (≈ 6.04 µM)
Streptococcus pneumoniae [22]
  MIC: 32 mg/L (≈ 96.6 µM)
Streptococcus pneumoniae [23]
  MIC: 16 mg/L (≈ 48.3 µM)
Streptococcus pneumoniae [24]
  MIC: 32 mg/L (≈ 96.6 µM)
